Measured values from patent US10463685B2, “Telomerase mediated telomere altering compounds” (The Board of Regents of The University of Texas System, priority 2013, dated 2019).
Read-outs that look alike come from different tables or passages of the source. [tNP] = thio-phosphoramidate internucleoside linkage; {Palm} = palmitoyl group

What was measured:
[1] = system: HCT116 cells; experiment: Telomere length assay (TRF), long-term culture; format: cell-based, human
Protocol: (§1) For long-term cellular experiments, HCT116 (1,000 cells/cm^2) and BJ (10,000 cells/cm^2) cells were fed with 6-thio-dG (1, 3, 10 μM) containing medium every three days. The cells were counted and replated every week for 10-16 weeks. Additionally, HCT116 cells (1,000 cells/cm^2) were fed with 6-thio-G (1, 3, 10 μM) every three days and each week cells were counted, collected for TRF (Telomere Restriction Fragment) analysis and replated. HCT116 cells, following treatment with 10 μM 6-thio-dG for 12 weeks, were then treated with a combination of 10 μM 6-thio-dG and […] GRN163L for 2-4 weeks.
1×10^6 cells were collected and washed with PBS. DNA was isolated using the manufacturer's instructions (Qiagen, Valencia, Calif.). 2.5 μg DNA was digested with six different restriction enzymes (HhaI, HinfI, MspI, HaeIII, RsaI, AluI) (New England Bio, Ipswich, Mass.) and incubated at 37° C. overnight. Digested DNA was separated on a 0.7% agarose gel overnight at 70 V. The terminal restriction fragment (TRF) gel was denatured for 20 min in denaturating solution (0.5 M NaOH, 1.5 M NaCl, pH 13.2) and dried on Whatman 3 MM paper under vacuum for 3 hours at 56° C. The gel was neutralized for 15 minutes in neutralization buffer (1.5 M NaCl, 0.5 M Tris-HCl, pH 8.0) and then probed with a radiolabeled telomeric probe (C-rich) for 16 hours at 42° C. in 5×SSC buffer, 5×Denhardt's solution, 10 mmol/L Na2HPO4, and 1 mmol/L Na2H2P2O7. The gel was washed once with 2×SSC, 0.1% SDS, twice with 0.5×SSC, 0.1% SDS and then twice with 0.5×SSC, 1% SDS at room temperature for 15 min. Gels were exposed to a PhosphorImager screen overnight and analyzed using a Typhoon PhosphorImager scanner system (Molecular Dynamics).
To determine if 6-thio-dG and 6-thio-G causes progressive telomere shortening, telomere lengths of treated cells were evaluated by TRF assay. Cancer HCT116 and normal BJ fibroblast cells were treated with 1 μM or 10 μM of 6-thio-dG for 1-12 weeks every 3 days. In addition, HCT116 cells were also treated with 1 μM or 10 μM 6-thio-G for 1-10 weeks every 3 days to determine if there is any effect of this molecule on telomeric length maintenance. The control was untreated. Each week samples were collected for TRF analysis at 1×10^6 cells/sample at 1, 5, and 12 weeks for cells treated with 6-thio-dG and 1, 5, and 10 for cells treated with 6-thio-G.
HCT116 cells were treated with either 10 μM 6-thio-dG alone for 12-16 weeks, or with 3 μM GRN163L alone for 11 weeks. Then, these long term 6-thio-dG treated surviving cells were cultured with a combination of 6-thio-dG (10 μM) and/or GRN163L (3 μM) for 2-4 additional weeks. […] Specifically, the HCT116 cells were treated beyond the 12 weeks of 6-thio-dG treatment with either GRN163L only or GRN163L+6-thio-dG, for an additional 2 and 4 weeks to determine if there is an effect on telomere length.

[2] = system: HCT116 cells; experiment: TIF assay, gamma-H2AX and TRF2 immuno-staining; format: cell-based, human; conditions: HCT116, 3 μM
Protocol: Briefly, HCT116 cells were plated in 4-well chamber slides and after the cells attached to the surface, either 3 μM 6-thio-dG or 3 μM 6-thio-G was added to the medium at different time points (0, 30 min, 12 h, 24 h, 48 h, 72 h). […] TIFs were quantified using Imaris software.
Cancer HCT116 cells were seeded in chamber slides. Following cell attachment, 6-thio-dG (3 μM) and 6-thio-G (3 μM) were added to fresh medium at various time points (0, 30 min, 2 h, 12 h, 24 h, 48 h, 72 h). To test if 6-thio-dG and 6-thio-G cause telomere dysfunction in cancer cells, TIF analysis was conducted. […] 6-thio-dG treatment causes a 2.8-fold increase in telomeric DNA damage as compared to 6-thio-G after 72 h (FIG. 4).

[3] = system: HCT116 cells; experiment: Cell count and morphology after one week of treatment; format: cell-based, human; conditions: 3 μM, twice during one week
Text: HCT116 represents a human colon cancer cells, A549 models human lung epithelial cancer cells, H2882 models human lung epithelial cancer cells, HCC2429 models human lung epithelial cancer cells, HCC827 models human lung epithelial cancer cells, HCC15 models human lung epithelial cancer cells, H2087 models human lung epithelial cancer cells, HCC4017 models human lung epithelial cancer cells, HCC515 models human lung epithelial cancer cells, H2009 models human lung epithelial cancer cells, BJ-hTERT cells model telomerase expressing normal human fibroblast cells, and BJ human fibroblasts (telomerase silent) were grown in a Media X (Hyclone, Logan, Utah) supplemented with 10% cosmic calf serum (Hyclone).
Cancer HCT116 and normal BJ fibroblast cells were treated with 6-thio-dG (3 μM) and 6-thio-G (3 μM) twice during one week. Following one week of the treatment, cell morphology was monitored, and then the cells were collected and counted.

[4] = system: A549 human lung cancer cells; experiment: Tumor growth in xenograft animal model; format: in vivo, mice; conditions: 2.5 mg/kg every day
Protocol: Doses of 2.5 mg/kg of 6-thio-dG and 2.5 mg/kg of 6-thio-G were injected every day into mice after tumor implantation and providing time for tumor initiation. DMSO injections were used for the control. The volume of the tumor was measured.

[5] = system: BJ fibroblast cells; experiment: Telomere length assay (TRF), long-term culture; format: cell-based, human; conditions: BJ fibroblasts, 10 weeks
Protocol: as §1
1×10^6 cells were collected and washed with PBS. DNA was isolated using the manufacturer's instructions (Qiagen, Valencia, Calif.). 2.5 μg DNA was digested with six different restriction enzymes (HhaI, HinfI, MspI, HaeIII, RsaI, AluI) (New England Bio, Ipswich, Mass.) and incubated at 37° C. overnight. […] Gels were exposed to a PhosphorImager screen overnight and analyzed using a Typhoon PhosphorImager scanner system (Molecular Dynamics).
To determine if 6-thio-dG and 6-thio-G causes progressive telomere shortening, telomere lengths of treated cells were evaluated by TRF assay. […]

[6] = Toxicity testing in rats; format: in vivo; conditions: for mortality: rats
Protocol: Six rats were treated with 15 mg of 6-thio-dG/kg of body weight every two days. […] Another 5 rats were treated with 50 mg of 6-thio-dG/kg of body weight every other day. All rats died after 12 days.

[7] = format: in vivo
Protocol: Six WT mice were treated with 1.67 mg of 6-thio-dG/kg of body weight daily. Six WT mice were treated with 1.67 mg of 6-thio-G/kg of body weight daily. Six WT mice were treated with 5 mg of 6-thio-dG/kg of body weight daily. Six WT mice were treated with 5 mg of 6-thio-G/kg of body weight daily. The mice were given the appropriate dosage and weighed daily for 25 days. […] In comparison, the mice receiving 6-thio-G at the same dose lost between 1-2 grams (6-12% of initial weight) over the course of the 25 day treatment. […] In comparison, the mice receiving 6-thio-G at the same dose loss around 2 grams and all mice died by the 15th day of treatment.

Molecule	telomere shortening (TRF) compared to the control ([1]; HCT116, 3 μM alone, after 11 weeks)	telomere shortening compared with cells cultured with 6-thio-dG for 12, 14 and 16 weeks ([1]; HCT116, after 12 weeks of 10 μM 6-thio-dG, additional 2 and 4 weeks of treatment)	genomic DNA damage compared to 6-thio-G [2]	telomere length on continued treatment ([1]; HCT116, 10 μM, 12 weeks versus 16 weeks)	telomere shortening (TRF) ([1]; HCT116, 1 or 10 μM every 3 days, one week and five weeks)	telomere length after return to medium without drug ([1]; HCT116, 12 weeks 6-thio-dG, then no drug for 2-4 weeks)	cell count / cell death [3]	histology of the residual tumors [4]	rate of tumor growth (tumor volume) compared to the control and 6-thio-G [4]	telomere shortening (TRF) compared to untreated control [5]	signs of impaired function in remaining animals ([6]; rat, in vivo, 15 mg/kg)	mortality ([6]; 15 mg/kg every two days, after 6 injections, six rats)	mortality ([6]; 50 mg/kg every other day, after 12 days, 5 rats)	mortality ([7]; WT mice, 5 mg/kg daily, by the 15th day of treatment)	weight lost ([7]; mouse, in vivo, 5 mg/kg)
GRN163L: 13-mer thio-phophoramidate oligonucleotide 5′-TAGGGTTAGACAA-3′ with polmitoyl group at the 5′-end; direct competitive inhibitor of telomerase (all [tNP], 5' {Palm}, sugars by position and methylation of C not given here) [reference compound]	did not show any significant telomere shortening	increased telomere shortening													
Nc1nc2c(ncn2[C@H]2C[C@H](O)[C@@H](CO)O2)c(=S)[nH]1 [6-thio-dG, 6-thio-deoxyguanosine]			overall increase in genomic DNA damage	stabilized telomeres	telomere shortening was detectable	remained about the same	death of the vast majority of HCT116 cells	mostly fibrotic and often associated with apoptotic and inflammatory cells	rate of tumor growth was less	did not show enhanced telomere shortening	no signs of impaired function	One rat died	All rats died		
Nc1nc2nc[nH]c2c(=S)[nH]1 [6-thio-G, 6-thioguanine, reference compound]								mostly “healthy” growing cancerous cells		did not show enhanced telomere shortening				all mice died	around 2 grams
